From patent US7118921B1, “Incorporation and applications of biomolecular interactions within a carrier” (McMaster University, priority 1999, dated 2006)

System: melittin and intact BCaM:melittin complex
Format: binding, bovine

CN1CCN(CCCN2c3ccccc3Sc3ccc(C(F)(F)F)cc32)CC1 [TFP, trifluoperazine]
Effect on emission wavelength and anisotropy of the intact complex or of melittin: not affected | Effect on intensity of melittin or the intact complex: large decrease in intensity
